The values below come from ChEMBL document CHEMBL5257019, “An Overview of Severe Acute Respiratory Syndrome-Coronavirus (SARS-CoV) 3CL Protease Inhibitors: Peptidomimetics and Small Molecule Chemotherapy” (J Med Chem, 2016).

Each structure is given as a SMILES string.

Data set [1] has as its target Replicase polyprotein 1ab (Severe acute respiratory syndrome coronavirus 2) (UniProt P0DTD1). Put plainly: Inhibition of SARS-CoV-2 3CL protease assessed as ratio of Kinact/Ki.
Data set [2] deals with T1, Replicase polyprotein 1ab (Severe acute respiratory syndrome coronavirus 2, UniProt P0DTD1). Nature of the data set: Inhibition of N terminal his tagged SARS-CoV-2 3CL protease by FRET assay.
Data set [3] has as its target T1, Replicase polyprotein 1ab. Put plainly: Inhibition of SARS-CoV-2 3CL protease using 2-aminobenzoyl-SVTLQSG-Tyr(NO2)-R as substrate.
Data set [4] deals with Replicase polyprotein 1ab (Severe acute respiratory syndrome coronavirus 2) (UniProt P0DTD1). Put plainly: Inhibition of SARS-CoV-2 3CL protease at 100 uM relative to control.
Another data set deals with T2, Cytochrome P450 1A2 (Homo sapiens, UniProt P05177).
T2 sequence (P05177 whole entry): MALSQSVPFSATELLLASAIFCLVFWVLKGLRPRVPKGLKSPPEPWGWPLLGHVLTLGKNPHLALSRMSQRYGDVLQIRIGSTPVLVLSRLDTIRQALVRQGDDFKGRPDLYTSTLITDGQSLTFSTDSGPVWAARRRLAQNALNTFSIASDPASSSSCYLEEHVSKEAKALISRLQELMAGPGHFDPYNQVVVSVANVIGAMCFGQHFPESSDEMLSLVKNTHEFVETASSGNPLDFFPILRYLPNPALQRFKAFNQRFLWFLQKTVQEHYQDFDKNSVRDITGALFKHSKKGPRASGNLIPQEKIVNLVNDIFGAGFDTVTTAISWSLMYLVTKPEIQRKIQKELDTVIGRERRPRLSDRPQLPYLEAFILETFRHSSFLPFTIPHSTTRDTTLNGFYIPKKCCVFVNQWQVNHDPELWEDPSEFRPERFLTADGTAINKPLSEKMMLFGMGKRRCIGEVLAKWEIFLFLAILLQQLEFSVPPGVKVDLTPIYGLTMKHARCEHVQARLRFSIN
Put plainly: Inhibition of CYP1A2 (unknown origin). The data set is classed as ADME.

Another data set deals with Cytochrome P450 2D6 (Homo sapiens, UniProt P10635). Put plainly: Inhibition of CYP2D6 (unknown origin). It counts as ADME.
Sequence of Cytochrome P450 2D6 (P10635 whole entry): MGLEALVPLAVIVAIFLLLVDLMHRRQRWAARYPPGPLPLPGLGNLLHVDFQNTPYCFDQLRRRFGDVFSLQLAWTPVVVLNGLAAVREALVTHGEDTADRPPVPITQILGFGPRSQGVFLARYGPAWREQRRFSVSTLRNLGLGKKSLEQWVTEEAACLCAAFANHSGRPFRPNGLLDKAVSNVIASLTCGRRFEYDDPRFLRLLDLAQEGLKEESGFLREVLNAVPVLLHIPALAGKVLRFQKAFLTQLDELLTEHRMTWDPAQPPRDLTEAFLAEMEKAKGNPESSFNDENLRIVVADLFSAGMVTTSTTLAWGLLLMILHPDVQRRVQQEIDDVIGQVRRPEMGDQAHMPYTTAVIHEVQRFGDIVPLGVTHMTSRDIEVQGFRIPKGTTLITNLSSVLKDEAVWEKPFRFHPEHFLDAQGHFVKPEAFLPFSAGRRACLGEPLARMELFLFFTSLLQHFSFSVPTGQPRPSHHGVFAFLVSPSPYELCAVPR
Data set [5] in a line: Plasma protein binding in rat assessed as unbound fraction. It counts as ADME.
The nature of data set [6]: Plasma protein binding in human assessed as unbound fraction. It counts as ADME.
The target in a further data set is Cytochrome P450 2C9 (Homo sapiens, UniProt P11712). Put plainly: Inhibition of CYP2C9 (unknown origin). It counts as ADME.
Sequence of Cytochrome P450 2C9 (P11712 whole entry): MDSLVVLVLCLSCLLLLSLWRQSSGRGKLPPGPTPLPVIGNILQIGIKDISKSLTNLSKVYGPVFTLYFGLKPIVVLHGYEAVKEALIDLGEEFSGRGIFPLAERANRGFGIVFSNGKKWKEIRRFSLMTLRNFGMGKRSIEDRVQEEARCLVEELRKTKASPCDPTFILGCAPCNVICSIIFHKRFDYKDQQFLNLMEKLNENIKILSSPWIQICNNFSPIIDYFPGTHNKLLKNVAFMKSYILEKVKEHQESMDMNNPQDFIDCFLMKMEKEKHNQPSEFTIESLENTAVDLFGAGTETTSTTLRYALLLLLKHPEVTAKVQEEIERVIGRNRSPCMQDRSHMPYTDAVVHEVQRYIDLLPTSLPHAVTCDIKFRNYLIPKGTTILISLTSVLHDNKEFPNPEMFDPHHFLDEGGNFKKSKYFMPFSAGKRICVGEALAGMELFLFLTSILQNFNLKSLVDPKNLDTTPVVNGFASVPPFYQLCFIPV
A further data set deals with Cytochrome P450 3A4 (Homo sapiens, UniProt P08684). Put plainly: Inhibition of CYP3A4 (unknown origin). The data set is classed as ADME.
Sequence of Cytochrome P450 3A4 (P08684 whole entry): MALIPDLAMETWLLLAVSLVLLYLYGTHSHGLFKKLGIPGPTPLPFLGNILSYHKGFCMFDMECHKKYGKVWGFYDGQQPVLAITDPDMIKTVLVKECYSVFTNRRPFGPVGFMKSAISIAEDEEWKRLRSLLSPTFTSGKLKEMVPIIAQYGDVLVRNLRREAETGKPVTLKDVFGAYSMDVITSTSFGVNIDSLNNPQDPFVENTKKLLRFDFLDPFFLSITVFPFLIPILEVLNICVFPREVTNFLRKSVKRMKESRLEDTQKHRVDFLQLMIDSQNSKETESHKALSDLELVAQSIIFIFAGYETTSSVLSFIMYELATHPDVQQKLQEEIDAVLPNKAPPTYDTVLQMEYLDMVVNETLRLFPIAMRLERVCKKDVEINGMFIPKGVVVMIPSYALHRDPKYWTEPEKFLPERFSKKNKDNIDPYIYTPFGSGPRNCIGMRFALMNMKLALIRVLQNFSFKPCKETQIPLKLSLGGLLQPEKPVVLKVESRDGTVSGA
The target of data set [7] is T1, Replicase polyprotein 1ab. Nature of the data set: Inhibition of SARS-CoV-2 3CL protease by FRET assay.
Data set [8] has as its target T1, Replicase polyprotein 1ab. Nature of the data set: Inhibition of SARS-CoV-2 3CL protease using Dabcyl-Leu-Ala-Gln-Ala-Val-Arg-Ser-Ser-Ser-Arg-Edans as substrate.
A short description of data set [9]: Inhibition of SARS-CoV 3CL protease using 2-aminobenzoyl-SVTLQSG-Tyr(NO2)-R as substrate. Also noted: species or system Severe acute respiratory syndrome-related coronavirus.
Data set [10] addresses T1, Replicase polyprotein 1ab. Put plainly: Inhibition of SARS-CoV-2 3CL protease using Dabcyl-KTSAVLQSGFRKME-Edans as substrate assessed as inhibition constant by flurogenic assay.

On to `CCOC(=O)[C@@H]1OC1C(=O)N(CCC(N)=O)NC(=O)[C@H](Cc1ccccc1)NC(=O)[C@H](CC(C)C)NC(=O)OCc1ccccc1` (stereo partly drawn), for which the Ratio in data set [1] was found to be 1900 M/s.

In turn, `O=C(Oc1cncc(Cl)c1)c1cccs1` gave an IC50 in [2] of 0.5 µM.

Take `Cc1cc2cc(CN(CCc3ccccc3C)C(=O)NCc3ccccc3)c(=O)[nH]c2cc1C`: in data set [3], the IC50 was found to be 17.2 µM.

With `O=C(Oc1cncc(Cl)c1)c1cc2ccccc2[nH]1`, in data set [2], the IC50 turned out to be 0.065 µM.

In the case of `CC(=O)N[C@H](C(=O)N[C@H](C(=O)N[C@@H](CC(C)C)C(=O)N[C@@H](C[C@@H]1CCNC1=O)C(=O)c1cccs1)[C@@H](C)O)C(C)C`, the inhibition in data set [4] was 23%.

For the molecule `CC(C)(C)NC(=O)C(c1cccnc1)N(C(=O)c1ccco1)c1ccc(C(C)(C)C)cc1` (stereo not drawn), the results for the IC50 against Cytochrome P450 1A2, against Cytochrome P450 2D6 and on Cytochrome P450 2C9 were > 30 µM, > 30 µM and 9.1 µM, respectively. Also, the fraction unbound in [5] stood at 0.026; in data set [6], 0.033.

Regarding `Cn1ccc(CN(C(=O)Cn2nnc3ccccc32)c2ccc(NC(=O)C3CC3)cc2)c1`, the IC50 at Cytochrome P450 1A2 amounted to 7.7 µM; on Cytochrome P450 2D6, 8.4 µM; on Cytochrome P450 2C9, 7.2 µM; at Cytochrome P450 3A4, 4.6 µM. For the same molecule, the figures for the fraction unbound in data set [5] and in data set [6] were 0.106 and 0.048, respectively.

As for `O=c1c(OC[C@H]2O[C@@H](O)[C@H](O)[C@@H](O)[C@H]2O)c(-c2ccc(O)c(O)c2)oc2cc(O)cc(O)c12`, the concentration for half-maximal inhibition (IC50) in data set [7] stood at 42.8 µM.

In data set [8], `O=C(O)c1ccc(/N=C/c2c(O)ccc3c2C2CCCCC2O3)cc1` (stereo not drawn) yielded an EC50 of 23 µM.

Turning to `CC(=O)N[C@H](C(=O)N[C@H](C(=O)N[C@@H](CC(C)C)C(=O)N[C@@H](Cc1ccccc1)C(=O)Cn1[nH]c(=O)c2ccccc2c1=O)[C@@H](C)OCc1ccccc1)C(C)C`, the inhibition in data set [4] was 72%.

As to `OCC1C(COCc2ccccc2)CC1n1cnc2c(Cl)ncnc21` (stereo not drawn), the half-maximal inhibitory concentration (IC50) in data set [9] was found to be 14.5 µM.

The molecule `O=C(CSc1nc(C2CCCCC2)nc2ccccc12)NCc1ccco1` yielded an IC50 in [3] of 18.2 µM.

Consider `O=C(On1nnc2ccccc21)c1ccc2[nH]ccc2c1`, for which the Ki in data set [10] amounted to 0.0075 µM.

Consider `COC(=O)c1cc2c(O)cc(C(F)(F)F)cc2o1`, for which the IC50 in data set [3] worked out at 4.3 µM.

In general, IC50 refers to the point on the concentration scale where inhibition reaches its midpoint. A high value points to a need for much substance. One may read the inhibition as the percentage by which the read-out fell short of the control. Read a low inhibition as a response near the control. Usually fraction unbound stands for free concentration divided by total concentration. As a reminder, the EC50 is the midpoint of the concentration-response curve. Read a low EC50 as an effect from little substance. In general, Ki refers to a measure of affinity in units of concentration, obtained from inhibition or displacement.
